# Source: patent US20080300298A1, “Honokiol Derivates For the Treatment of Proliferative Disorders” (priority 2005, published 2008)
# Columns and labels:
# [1] = tested on: normal PBMNCs; experiment: cells; type: cell-based; conditions: Homo sapiens
# Description: Cells: Dexamethasone (Dex)-sensitive MM.1S (wild-type p53) and Dex-resistant MM.1R, RPMI 8226-Dox40 (doxorubicin resistant) and RPMI 8226-LR5 (melphalan resistant) human multiple myeloma (MM) cell lines were used. RPMI-8226 and U266 cells were obtained from the American Type Culture Collection (Rockville, Md.). SU-DHL-4 cells were also utilized. Fresh peripheral blood mononuclear cells (PBMNCs) were obtained from healthy subjects after informed consent. The PBMNC were separated from heparinized peripheral blood by Ficoll-Hipaque density sedimentation. BM specimens were acquired from patients with MM after obtaining informed consent and mononuclear cells were separated by Ficoll-Hipaque density sedimentation. […]
# Reagents: Honokiol (HNK; Calbiochem, San Diego, Calif.) was dissolved in ethanol at 20 mg/ml stock solution. […] Absorbance readings at a wavelength of 450 nm were taken on a spectrophotometer (Molecular Devices Corp., Sunnyvale, Calif.).
# HNK inhibits growth of MM cell lines. To identify the therapeutic potential of HNK, MM cell lines and normal PBMNCs were cultured at indicated concentration with HNK for 48 h, and growth was determined by calorimetric assays. […] FIGS. 6A and B show growth inhibition in MM cell lines by HNK as assessed by calorimetric assay after 48 h-culture. […]
# [2] = tested on: NF-kB-regulated gene products in H1299 cells; experiment: Western blot of TNF-induced NF-kB-regulated gene products; type: cell-based, human
# Experimental: (A) Honokiol inhibits COX-2, MMP-9, ICAM-1, and VEGF expression induced by TNF. H1299 cells (2×10^6/ml) were left untreated or incubated with […] honokiol for 12 h and then treated with 0.1 nM TNF for different times. Whole-cell extracts were prepared, and […] of the whole-cell lysate was analyzed by Western blotting using antibodies against VEGF, MMP-9, and COX-2. (B) Honokiol inhibits cyclin D1 and c-myc expression induced by TNF. H1299 cells (2×10^6/ml) were left untreated or incubated with […] honokiol for 12 h and then treated with 0.1 nM TNF for different times. Whole-cell extracts were prepared, and […] of the whole-cell lysate was analyzed by Western blotting using antibodies against cyclin D1 and c-myc. […] (C) Honokiol inhibits the expression of anti-apoptotic gene products cIAP1, cIAP2 Bcl-x1, Bcl-2, cFLIP, TRAF2, and survivin. H1299 cells (2×10^6/ml) were left untreated or incubated with […] honokiol for 12 h and then treated with 0.1 nM TNF for different times. Whole-cell extracts were prepared, and […] of the whole-cell lysate was analyzed by Western blotting using antibodies against IAP1, IAP2, bcl-x1, bcl-2, cFLIP, and survivin as indicated.
# Western blot analysis. […] Cytoplasmic protein […] was resolved on 10% SDS-PAGE gel, transferred to a nitrocellulose membrane, blocked with 5% non-fat milk, and probed with specific antibodies against IkBa, posphorylated IkBa, p65, and phosphorylated p65. To determine the expression of cyclin D1, COX-2, MMP-9, cIAP-1, TRAF1, Bcl-2, Bfl-1, cFLIP, and survivin in whole-cell extracts of treated cells (2×10^6 cells in 2 ml of medium), […] of protein was resolved on SDS-PAGE and probed by Western blot with specific antibodies as per the manufacturer's recommended protocol. The blots were washed, exposed to HRP-conjugated secondary antibodies for 1 h, and finally detected by ECL reagent (Amersham Pharmacia Biotechnology, Piscataway, N.J.). The bands were quantified using a Personal Densitometer Scan v1.30 using Imagequant software version 3.3 (Molecular Dynamics). […]
compound,measurement,setting,value
"C=CCc1ccc(O)c(-c2ccc(O)c(CC=C)c2)c1 [HNK, Honokiol]",IC50,[1],40 to 80 µg/mL
same,"TNF-induced expression of VEGF, COX-2, ICAM-1 and MMP-9",[2]; H1299,abolished the expression
same,TNF-induced expression of cyclin D1 and c-myc,[2]; H1299,"abolished, in a time-dependent fashion, the TNF-induced expression of cyclin D1 and c-myc"
same,TNF-induced expression of anti-apoptotic gene products,"[2]; cIAP1, cIAP-2, BCl-2, Bcl-xL, cFLIP, TRAF1, and survivin",inhibited the TNF-induced expression of all of these proteins
